Assay results published in PubChem BioAssay AID250 (DTP/NCI, 2004).
“And” between values parts separate entries of the source, which are not always exact repeats. Identical values can stand only once. Inconclusive results and toxic doses are left out.

System: BDF1 mice, L1210 leukemia sc, survival T/C
Test: NCI In Vivo Anticancer Drug Screen. Data for tumor model L1210 Leukemia (subcutaneous) in B6D2F1 (BDF1) mice
Settings: higher = longer survival
Outline: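 Transplantable tumor-bearing mice; survival or tumor size recorded; result = T/C, treated vs vehicle control.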

[1] = endpoint: median survival time, dose: 65.0 mg/kg/injection, schedule: Q01DX Z (sc), vehicle: saline
[2] = endpoint: median survival time, dose: 108.0 mg/kg/injection, schedule: Q01DX Z (sc), vehicle: saline
[3] = endpoint: median survival time, dose: 180.0 mg/kg/injection, schedule: Q01DX Z (sc), vehicle: saline
[4] = endpoint: median survival time, dose: 300.0 mg/kg/injection, schedule: Q01DX Z (sc), vehicle: saline
[5] = endpoint: median survival time, dose: 180.0 mg/kg/injection, schedule: Q01DX Z (sc), vehicle: carboxymethylcellulose (CMC)
[6] = endpoint: median survival time, dose: 300.0 mg/kg/injection, schedule: Q01DX Z (sc), vehicle: carboxymethylcellulose (CMC)
[7] = endpoint: median survival time, dose: 500.0 mg/kg/injection, schedule: Q01DX Z (sc), vehicle: carboxymethylcellulose (CMC)
[8] = endpoint: median survival time, dose: 833.0 mg/kg/injection, schedule: Q01DX Z (sc), vehicle: carboxymethylcellulose (CMC)

SMILES: NC(=S)N/N=C/c1ccc(O)cn1
- T/C (endpoint: median survival time, dose: 8.4 mg/kg/injection, schedule: Q03HX024 (sc), vehicle: none): 120 % of control
- T/C (endpoint: median survival time, dose: 10.0 mg/kg/injection, schedule: Q03HX024 (sc), vehicle: other): 155 % of control
- T/C (endpoint: median survival time, dose: 20.0 mg/kg/injection, schedule: Q03HX024 (ip), vehicle: other): 183 % of control
- T/C (endpoint: median survival time, dose: 20.0 mg/kg/injection, schedule: Q03HX024 (sc), vehicle: other): 177 % of control
- T/C (endpoint: median survival time, dose: 23.0 mg/kg/injection, schedule: Q03HX024 (sc), vehicle: none): 175 % of control
- T/C (endpoint: median survival time, dose: 30.0 mg/kg/injection, schedule: Q03HX024 (ip), vehicle: other): 238 % of control
- T/C (endpoint: median survival time, dose: 30.0 mg/kg/injection, schedule: Q03HX024 (sc), vehicle: other): 266 % of control
- T/C (endpoint: median survival time, dose: 39.0 mg/kg/injection, schedule: Q03HX024 (sc), vehicle: none): 165 % of control
- T/C (endpoint: median survival time, dose: 50.0 mg/kg/injection, schedule: Q04DX003 (sc), vehicle: other): 107 % of control and 110 % of control
- T/C (endpoint: median survival time, dose: 60.0 mg/kg/injection, schedule: Q03HX024 (ip), vehicle: other): 100 % of control
- T/C (endpoint: median survival time, dose: 65.0 mg/kg/injection, schedule: Q01DX009 (sc), vehicle: other): 158 % of control and 166 % of control
- T/C [1]: 104 % of control
- T/C (endpoint: median survival time, dose: 65.0 mg/kg/injection, schedule: Q08DX009 (sc), vehicle: none): 150 % of control
- T/C (endpoint: median survival time, dose: 100.0 mg/kg/injection, schedule: Q01DX009 (ip), vehicle: other): 150 % of control
- T/C (endpoint: median survival time, dose: 100.0 mg/kg/injection, schedule: Q01DX009 (sc), vehicle: other): 155 % of control
- T/C (endpoint: median survival time, dose: 100.0 mg/kg/injection, schedule: Q04DX003 (ip), vehicle: other): 111 % of control
- T/C (endpoint: median survival time, dose: 100.0 mg/kg/injection, schedule: Q04DX003 (sc), vehicle: other): 107 % of control and 110 % of control and 111 % of control
- T/C (endpoint: median survival time, dose: 108.0 mg/kg/injection, schedule: Q01DX009 (sc), vehicle: other): 163 % of control and 166 % of control
- T/C [2]: 104 % of control
- T/C (endpoint: median survival time, dose: 108.0 mg/kg/injection, schedule: Q04DX003 (sc), vehicle: none): 100 % of control
- T/C (endpoint: median survival time, dose: 108.0 mg/kg/injection, schedule: Q04DX003 (sc), vehicle: other): 103 % of control and 105 % of control
- T/C (endpoint: median survival time, dose: 108.0 mg/kg/injection, schedule: Q08DX009 (sc), vehicle: none): 155 % of control
- T/C (endpoint: median survival time, dose: 180.0 mg/kg/injection, schedule: Q01DX009 (sc), vehicle: other): 170 % of control and 177 % of control
- T/C [3]: 104 % of control
- T/C (endpoint: median survival time, dose: 180.0 mg/kg/injection, schedule: Q02DX005 (sc), vehicle: other): 99 % of control
- T/C (endpoint: median survival time, dose: 180.0 mg/kg/injection, schedule: Q04DX003 (sc), vehicle: none): 100 % of control
- T/C (endpoint: median survival time, dose: 180.0 mg/kg/injection, schedule: Q04DX003 (sc), vehicle: other): 104 % of control and 105 % of control
- T/C (endpoint: median survival time, dose: 180.0 mg/kg/injection, schedule: Q08DX009 (sc), vehicle: none): 150 % of control
- T/C (endpoint: median survival time, dose: 180.0 mg/kg/injection, schedule: Q11HX006 (sc), vehicle: water): 122 % of control
- T/C (endpoint: median survival time, dose: 200.0 mg/kg/injection, schedule: Q01DX009 (ip), vehicle: other): 150 % of control
- T/C (endpoint: median survival time, dose: 200.0 mg/kg/injection, schedule: Q01DX009 (sc), vehicle: other): 150 % of control
- T/C (endpoint: median survival time, dose: 200.0 mg/kg/injection, schedule: Q04DX003 (ip), vehicle: other): 111 % of control
- T/C (endpoint: median survival time, dose: 200.0 mg/kg/injection, schedule: Q04DX003 (sc), vehicle: other): 98 % of control and 100 % of control and 116 % of control
- T/C (endpoint: median survival time, dose: 300.0 mg/kg/injection, schedule: Q01DX009 (sc), vehicle: other): 150 % of control
- T/C [4]: 108 % of control
- T/C (endpoint: median survival time, dose: 300.0 mg/kg/injection, schedule: Q02DX005 (sc), vehicle: other): 108 % of control
- T/C (endpoint: median survival time, dose: 300.0 mg/kg/injection, schedule: Q04DX003 (sc), vehicle: none): 100 % of control
- T/C (endpoint: median survival time, dose: 300.0 mg/kg/injection, schedule: Q04DX003 (sc), vehicle: other): 105 % of control and 111 % of control
- T/C (endpoint: median survival time, dose: 300.0 mg/kg/injection, schedule: Q04DX003 (sc), vehicle: water): 111 % of control
- T/C (endpoint: median survival time, dose: 300.0 mg/kg/injection, schedule: Q08DX009 (sc), vehicle: none): 160 % of control
- T/C (endpoint: median survival time, dose: 300.0 mg/kg/injection, schedule: Q11HX006 (sc), vehicle: water): 122 % of control
- T/C (endpoint: median survival time, dose: 400.0 mg/kg/injection, schedule: Q01DX009 (sc), vehicle: other): 88 % of control
- T/C (endpoint: median survival time, dose: 400.0 mg/kg/injection, schedule: Q04DX003 (ip), vehicle: other): 111 % of control
- T/C (endpoint: median survival time, dose: 400.0 mg/kg/injection, schedule: Q04DX003 (sc), vehicle: other): 99 % of control and 100 % of control and 116 % of control
- T/C (endpoint: median survival time, dose: 500.0 mg/kg/injection, schedule: Q02DX005 (sc), vehicle: other): 100 % of control and 117 % of control
- T/C (endpoint: median survival time, dose: 500.0 mg/kg/injection, schedule: Q04DX003 (sc), vehicle: none): 100 % of control
- T/C (endpoint: median survival time, dose: 500.0 mg/kg/injection, schedule: Q04DX003 (sc), vehicle: other): 106 % of control and 111 % of control
- T/C (endpoint: median survival time, dose: 833.0 mg/kg/injection, schedule: Q02DX005 (sc), vehicle: other): 105 % of control and 60 % of control
- T/C (endpoint: median survival time, dose: 1388.0 mg/kg/injection, schedule: Q02DX005 (sc), vehicle: other): 120 % of control and 60 % of control

SMILES: CCOC(N)=O
- T/C [1]: 95 % of control
- T/C [2]: 100 % of control
- T/C [3]: 100 % of control
- T/C [4]: 100 % of control
- T/C (endpoint: median survival time, dose: 500.0 mg/kg/injection, schedule: Q01DX Z (sc), vehicle: saline): 90 % of control

SMILES: CN(N=O)C(=O)Nc1c[nH]c(=O)[nH]c1=O
- T/C (endpoint: median survival time, dose: 14.0 mg/kg/injection, schedule: Q01DX Z (sc), vehicle: saline): 90 % of control
- T/C (endpoint: median survival time, dose: 23.0 mg/kg/injection, schedule: Q01DX Z (sc), vehicle: saline): 100 % of control
- T/C (endpoint: median survival time, dose: 39.0 mg/kg/injection, schedule: Q01DX Z (sc), vehicle: saline): 105 % of control
- T/C [1]: 95 % of control
- T/C [2]: 100 % of control

SMILES: CCOC(=O)c1ccc(N)nc1
- T/C (endpoint: median survival time, dose: 1.81 mg/kg/injection, schedule: Q01DX Z (sc), vehicle: water): 100 % of control
- T/C (endpoint: median survival time, dose: 3.02 mg/kg/injection, schedule: Q01DX Z (sc), vehicle: water): 100 % of control
- T/C (endpoint: median survival time, dose: 5.04 mg/kg/injection, schedule: Q01DX Z (sc), vehicle: water): 100 % of control
- T/C (endpoint: median survival time, dose: 8.4 mg/kg/injection, schedule: Q01DX Z (sc), vehicle: water): 100 % of control
- T/C (endpoint: median survival time, dose: 14.0 mg/kg/injection, schedule: Q01DX Z (sc), vehicle: water): 100 % of control
- T/C (endpoint: median survival time, dose: 23.3 mg/kg/injection, schedule: Q01DX Z (sc), vehicle: water): 100 % of control
- T/C (endpoint: median survival time, dose: 38.9 mg/kg/injection, schedule: Q01DX Z (sc), vehicle: water): 100 % of control

SMILES: O=C1C(NC(=O)C2CCCCC2)=C(N2CC2)C(=O)C(NC(=O)C2CCCCC2)=C1N1CC1
- T/C [5]: 100 % of control
- T/C [6]: 100 % of control
- T/C [7]: 100 % of control
- T/C [8]: 100 % of control
- T/C (endpoint: median survival time, dose: 1388.0 mg/kg/injection, schedule: Q01DX Z (sc), vehicle: carboxymethylcellulose (CMC)): 100 % of control

SMILES: CN(O)C(N)=O
- T/C (endpoint: median survival time, dose: 360.0 mg/kg/injection, schedule: Q01DX Z (sc), vehicle: saline): 150 % of control

SMILES: CN(C)c1ccc(/C=C2\C=Cc3ccccc32)cc1
- T/C [5]: 100 % of control
- T/C [6]: 100 % of control
- T/C [7]: 105 % of control
- T/C [8]: 111 % of control

SMILES: CN(Cc1cnc2nc(N[Si](C)(C)C)nc(N[Si](C)(C)C)c2n1)c1ccc(C(=O)NC(CCC(=O)O[Si](C)(C)C)C(=O)O[Si](C)(C)C)cc1 (configuration not stated)
- T/C (endpoint: mean survival time, dose: 1.0 mg/kg/injection, schedule: Q01DX009 (ip), vehicle: Klucel (hydroxypropylcellulose) (HPC)): 150 % of control
- T/C (endpoint: mean survival time, dose: 2.0 mg/kg/injection, schedule: Q01DX009 (ip), vehicle: Klucel (hydroxypropylcellulose) (HPC)): 169 % of control
- T/C (endpoint: mean survival time, dose: 4.0 mg/kg/injection, schedule: Q01DX009 (ip), vehicle: Klucel (hydroxypropylcellulose) (HPC)): 176 % of control
- T/C (endpoint: mean survival time, dose: 8.0 mg/kg/injection, schedule: Q01DX009 (ip), vehicle: Klucel (hydroxypropylcellulose) (HPC)): 169 % of control
- T/C (endpoint: mean survival time, dose: 8.0 mg/kg/injection, schedule: Q04DX003 (ip), vehicle: Klucel (hydroxypropylcellulose) (HPC)): 156 % of control
- T/C (endpoint: mean survival time, dose: 16.0 mg/kg/injection, schedule: Q01DX009 (ip), vehicle: Klucel (hydroxypropylcellulose) (HPC)): 119 % of control
- T/C (endpoint: mean survival time, dose: 32.0 mg/kg/injection, schedule: Q04DX003 (ip), vehicle: Klucel (hydroxypropylcellulose) (HPC)): 160 % of control
- T/C (endpoint: mean survival time, dose: 64.0 mg/kg/injection, schedule: Q04DX003 (ip), vehicle: Klucel (hydroxypropylcellulose) (HPC)): 160 % of control

SMILES: CC(C)Sc1ncnc2nc[nH]c12
- T/C (endpoint: median survival time, dose: 38.9 mg/kg/injection, schedule: Q01DX Z (sc), vehicle: methylcellulose (MC)): 110 % of control
- T/C (endpoint: median survival time, dose: 64.8 mg/kg/injection, schedule: Q01DX Z (sc), vehicle: methylcellulose (MC)): 155 % of control
- T/C (endpoint: median survival time, dose: 108.0 mg/kg/injection, schedule: Q01DX Z (sc), vehicle: methylcellulose (MC)): 155 % of control
